# Assay results as given in patent US20090054412A1, “Treatment of Sleep Disorders” (priority 2007, published 2009).
# Values joined by “and” are separate entries in the source; they are usually repeats but may differ in a detail not shown here. Identical values can stand only once.
# Tests used:
# [1] = molecular target: T1, rat GABAA receptors α2β2γ2 (Rattus norvegicus, UniProt P18508+P23576); assay: Stimulation of GABA (EC3-5)-elicited currents in Xenopus oocytes, two-electrode voltage clamp, α2β2γ2; type: cell-based
# T1 construct: expressed in transfected cells; host or cells: Xenopus laevis oocytes, cRNA microinjected
# T1 sequence (P23576 29-451): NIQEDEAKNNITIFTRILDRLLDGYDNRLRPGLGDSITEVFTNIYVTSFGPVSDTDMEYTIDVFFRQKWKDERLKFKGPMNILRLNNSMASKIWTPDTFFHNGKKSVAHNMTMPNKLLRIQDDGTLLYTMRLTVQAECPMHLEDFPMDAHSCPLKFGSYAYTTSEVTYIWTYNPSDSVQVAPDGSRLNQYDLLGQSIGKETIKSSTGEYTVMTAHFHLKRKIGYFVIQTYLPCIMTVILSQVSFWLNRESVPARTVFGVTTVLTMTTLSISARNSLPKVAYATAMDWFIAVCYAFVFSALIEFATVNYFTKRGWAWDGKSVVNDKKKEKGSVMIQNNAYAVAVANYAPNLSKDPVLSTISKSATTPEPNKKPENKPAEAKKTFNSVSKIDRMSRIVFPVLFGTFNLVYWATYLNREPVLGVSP
# T1 sequence (P63138 25-474 partner limits assumed): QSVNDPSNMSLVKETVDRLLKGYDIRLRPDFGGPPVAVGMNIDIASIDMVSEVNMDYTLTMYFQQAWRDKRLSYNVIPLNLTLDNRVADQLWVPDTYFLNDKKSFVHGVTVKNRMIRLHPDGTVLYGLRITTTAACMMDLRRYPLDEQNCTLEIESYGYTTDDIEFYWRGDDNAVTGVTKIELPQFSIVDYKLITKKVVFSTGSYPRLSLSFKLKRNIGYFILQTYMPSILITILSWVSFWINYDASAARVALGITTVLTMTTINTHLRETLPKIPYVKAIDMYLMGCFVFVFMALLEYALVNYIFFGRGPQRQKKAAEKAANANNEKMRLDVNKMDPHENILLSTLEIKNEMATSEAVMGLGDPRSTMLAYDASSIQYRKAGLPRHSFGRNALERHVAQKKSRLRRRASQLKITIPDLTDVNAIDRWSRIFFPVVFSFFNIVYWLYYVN
# T1 sequence (P18508 39-466): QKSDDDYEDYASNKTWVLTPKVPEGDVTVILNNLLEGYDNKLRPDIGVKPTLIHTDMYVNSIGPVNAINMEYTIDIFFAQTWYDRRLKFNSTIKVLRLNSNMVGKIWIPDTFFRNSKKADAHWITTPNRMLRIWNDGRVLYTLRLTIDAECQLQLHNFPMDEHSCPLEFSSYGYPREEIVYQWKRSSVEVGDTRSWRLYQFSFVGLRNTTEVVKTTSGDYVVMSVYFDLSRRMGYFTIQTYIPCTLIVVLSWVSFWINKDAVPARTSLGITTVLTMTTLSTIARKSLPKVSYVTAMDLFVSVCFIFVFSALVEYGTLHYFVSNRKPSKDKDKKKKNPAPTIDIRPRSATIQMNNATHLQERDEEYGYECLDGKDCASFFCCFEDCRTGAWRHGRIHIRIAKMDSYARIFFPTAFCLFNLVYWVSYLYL
# Description: (§1) 7-Chloro-3-(5-dimethylaminomethyl-[1,2,4]oxadiazol-3-yl)-5methyl-4,5-dihydro-imidazol[1,5,-a][1,4]benzodiazepine-6-one was used to test the effects of the compound of formula (II): […]
# (§2) Similar procedures were chosen as for the investigation of other GABAA receptor subunit specific substances (e.g., Baur et al., 2005; Mol. Pharmacol. 68, 787-792).
# (§3) Lobes of the ovary containing the follicles were obtained by surgical procedures from female Xenopus laevis. Follicles were singled out using a platinum loop. Fifty nL of cRNA solution at a ratio of αx:β2:γ2 of 1:1:5 (3.3-10 nM αx (x=1,2,3,5); 3.3-10 nM β2; 16.7-50 nM γ2) (Boileau et al., 2002; Neuropharmacology 43, 695-700) were microinjected into Xenopus follicles. Several hours after microinjection the follicles were freed of follicular layers and adhering connective tissue by a collagenase/hypertonic shock procedure (Sigel, 1987; J. Physiol.(Land) 386, 73-90). Oocytes were kept at constant 18° C. until measurement (1-4 days) in a modified Barth solution (88 mM NaCl, 1 mM KCl, 2.4 mM NaHCO3, 10 mM Hepes-NaOH (pH 7.5), 0.82 mM MgSO4×7H2O, 0.34 mM Ca(NO3)2×4H2O, 0.41 mM CaCl2×2H2O, 100 U Penicillin/mL, 100 μg Streptomycin/mL, sterile filtered).
# (§4) Currents were measured using a home-built amplifier in combination with a xy-recorder or were digitized using a MacLab/200 (AD Instruments) and stored on a computer. Xenopus oocytes were voltage clamped using the two-electrode voltage clamp technique (electrode resistance about 0.8 MΩ) at −80 mV. The medium contained 90 mM NaCl, 1 mM KCl, 1 mM MgCl2, 1 mM CaCl2, 10 mM Na-Hepes (pH 7.4) and 0.5% DMSO.
# (§5) GABA was applied for 20-50 seconds without or in combination with other drugs and a washout period of 4 minutes was allowed to ensure full recovery from desensitization, which was experimentally determined. The perfusion solution (6 mL/min) was applied through a glass capillary with an inner diameter of 1.35 mm, the mouth of which was placed about 0.4 mm from the surface of the oocyte. The rate of solution change under our conditions has been estimated 70% within less than 0.5 s (Sigel et al., 1990; Neuron 5, 703-711). The entire perfusion system and the assay chamber were cleaned between drug applications by washing with DMSO.
# (§6) Data is given as mean±SD, except in the figures where data is shown for clarity as mean±SEM. Current stimulation was calculated as follows: stimulation (%)=((I(GABA+modulator)−I(GABA))/I(GABA))×100%, where I is the current amplitude. Where indicated, the stimulation was standardized to the stimulation by 1 μM diazepam (100%). To obtain FIGS. 1-4, values for current stimulation obtained at a given concentration of modulator at a given subunit combination were averaged. The data points were fitted with the equation stimulation=efficacy/(1+(potency/concentration of modulator)). The values given in the Tables (Summary) are obtained by fitting individual curves and subsequently averaging efficacy and potency.
# (§7) Concentration response curves were also performed with oocytes expressing α2β2γ2, α3β2γ2, or α5β2γ2, after establishing the optimal concentration range as indicated above. […] Averaged data of the individual curves summarizing the effects of the compound of formula (II) are shown below for unstandardized and standardized stimulation.
# (§8) Concentration response curves were also performed with oocytes expressing α2β2γ2, α3β2γ2, or α5β2γ2.
# (§9) Current stimulation by diazepam was determined in each batch of oocytes as follows. GABA (EC3-5) was applied until a stable response was obtained. Subsequently, GABA was applied in combination with 1 μM diazepam.
# [2] = molecular target: T2, rat GABAA receptors α5β2γ2 (Rattus norvegicus, UniProt P18508+P19969); assay: Stimulation of GABA (EC3-5)-elicited currents in Xenopus oocytes, two-electrode voltage clamp, α5β2γ2; type: cell-based
# T2 construct: expressed in transfected cells; host or cells: Xenopus laevis oocytes, cRNA microinjected
# T2 sequence (P19969 32-464 limits assumed): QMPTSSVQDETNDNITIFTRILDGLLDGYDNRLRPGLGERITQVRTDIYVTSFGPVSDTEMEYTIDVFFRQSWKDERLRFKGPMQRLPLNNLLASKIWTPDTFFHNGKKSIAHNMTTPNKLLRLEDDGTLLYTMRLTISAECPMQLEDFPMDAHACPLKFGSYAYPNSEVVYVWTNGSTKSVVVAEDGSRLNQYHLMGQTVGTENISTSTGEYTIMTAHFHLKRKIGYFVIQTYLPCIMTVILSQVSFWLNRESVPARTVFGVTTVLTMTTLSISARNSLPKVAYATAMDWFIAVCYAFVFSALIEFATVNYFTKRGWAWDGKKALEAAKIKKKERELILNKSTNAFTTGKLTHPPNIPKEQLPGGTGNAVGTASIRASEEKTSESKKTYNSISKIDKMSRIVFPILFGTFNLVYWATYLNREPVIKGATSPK
# T2 sequence (P63138 25-474 partner limits assumed): as the sequence (P63138 25-474 partner limits assumed) above
# T2 sequence (P18508 39-466): as the sequence (P18508 39-466) above
# Description: as §1, §2, §3, §4, §5, §6, §7, §8, §9
# [3] = molecular target: T3, rat GABAA receptors α3β2γ2 (Rattus norvegicus, UniProt P18508+P20236); assay: Stimulation of GABA (EC3-5)-elicited currents in Xenopus oocytes, two-electrode voltage clamp, α3β2γ2; type: cell-based
# T3 construct: expressed in transfected cells; host or cells: Xenopus laevis oocytes, cRNA microinjected
# T3 sequence (P20236 29-493): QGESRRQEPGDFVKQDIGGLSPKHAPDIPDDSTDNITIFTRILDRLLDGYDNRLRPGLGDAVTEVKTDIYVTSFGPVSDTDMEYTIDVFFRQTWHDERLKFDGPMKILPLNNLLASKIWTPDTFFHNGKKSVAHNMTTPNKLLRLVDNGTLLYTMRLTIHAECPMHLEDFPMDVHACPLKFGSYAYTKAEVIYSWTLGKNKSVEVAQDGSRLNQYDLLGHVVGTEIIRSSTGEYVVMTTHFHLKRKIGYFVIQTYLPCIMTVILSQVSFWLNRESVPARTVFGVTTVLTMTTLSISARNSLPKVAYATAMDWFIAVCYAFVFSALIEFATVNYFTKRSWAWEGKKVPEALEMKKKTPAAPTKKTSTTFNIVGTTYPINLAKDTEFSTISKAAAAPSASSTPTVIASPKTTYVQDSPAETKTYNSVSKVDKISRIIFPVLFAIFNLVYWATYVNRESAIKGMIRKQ
# T3 sequence (P63138 25-474 partner limits assumed): as the sequence (P63138 25-474 partner limits assumed) above
# T3 sequence (P18508 39-466): as the sequence (P18508 39-466) above
# Description: as §1, §2, §3, §4, §5, §6, §7, §8, §9
# [4] = molecular target: T4, rat GABAA receptors α1β2γ2 (Rattus norvegicus, UniProt P18508+P62813); assay: Stimulation of GABA (EC3-5)-elicited currents in Xenopus oocytes, two-electrode voltage clamp, α1β2γ2; type: cell-based; conditions: for Standardized Efficacy: standardized to stimulation by 1 μM diazepam (100%)
# T4 construct: expressed in transfected cells; host or cells: Xenopus laevis oocytes, cRNA microinjected
# T4 sequence (P62813 28-455): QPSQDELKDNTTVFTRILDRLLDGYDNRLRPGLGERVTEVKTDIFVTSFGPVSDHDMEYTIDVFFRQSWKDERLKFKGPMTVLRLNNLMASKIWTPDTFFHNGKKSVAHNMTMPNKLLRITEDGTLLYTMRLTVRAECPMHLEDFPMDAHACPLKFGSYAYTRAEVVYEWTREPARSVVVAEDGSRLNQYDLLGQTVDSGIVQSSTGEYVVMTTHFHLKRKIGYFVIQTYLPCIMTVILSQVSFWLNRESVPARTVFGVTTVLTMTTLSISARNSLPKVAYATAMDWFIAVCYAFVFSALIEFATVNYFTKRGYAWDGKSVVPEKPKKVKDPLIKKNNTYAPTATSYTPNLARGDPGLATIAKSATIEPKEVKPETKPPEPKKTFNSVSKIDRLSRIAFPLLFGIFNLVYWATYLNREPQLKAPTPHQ
# T4 sequence (P63138 25-474 partner limits assumed): as the sequence (P63138 25-474 partner limits assumed) above
# T4 sequence (P18508 39-466): as the sequence (P18508 39-466) above
# Description: as §1, §2, §3, §4, §5, §6
# GABA (EC3-5) was applied to an oocyte expressing α1β2γ2 GABAA receptors several times until the current response was stable. The GABA (EC3-5) refers to the effective concentration of GABA, which produces a response that is 3-5% of the maximal response to high concentrations of GABA. Such a low concentration of GABA is chosen in order to better see the potentiating effect of positive allosteric modulators.
# GABA was then applied in combination with various concentrations of the compound of formula (II) between 0.3 nM and 3,000 nM to produce a cumulative concentration response curve. […] In each batch of oocytes the stimulation by 1 μM diazepam was determined in five ocytes, extent of stimulation averaged and defined as 100%. Where indicated, stimulation by the compound of formula (II) in each batch of ocytes was expressed as a percentage of this value in the corresponding batch.
# GABA (EC3-5) was applied to an oocyte expressing α1β2γ2 GABAA receptors several times until the current response was stable.
# GABAA receptors = conditions: 20 mg, in man, PET; cited from earlier work
# [5] = standardized to stimulation by 1 μM diazepam (100%)
# [6] = unstandardized current stimulation
# [7] = 1 μM, different batches of oocytes, n=5
smiles,measurement,setting,value
"Cc1ccc(-c2nc3ccc(C)cn3c2CC(=O)N(C)C)cc1 [Zolpidem, zolpidem]",Standardized Efficacy,[1]; [5],179 ± 23%
same,Efficacy,[1]; [6],484 ± 60%
same,Standardized Efficacy,[2]; [5],16 ± 4%
same,Efficacy,[2]; [6],33 ± 12%
same,Standardized Efficacy,[3]; [5],166 ± 88%
same,Efficacy,[3]; [6],691 ± 365%
same,Intrinsic activity / type of allosteric modulation,"[4]; GABAA receptor benzodiazepine site, relative to diazepam",full agonist
same,Receptor subtype affinity,"[4]; in comparison to α2β2γ2, α3β2γ2 and α5β2γ2",higher affinity at α1β2γ2 GABAA receptors
same,Standardized Efficacy,[4]; α1β2γ2,215 ± 74%
same,Standardized Efficacy,"[4]; α1β2γ2, listed as zolpidem",215%
same,Efficacy,"[4]; α1β2γ2, unstandardized current stimulation",429 ± 120%
same,receptor occupancy,GABAA receptors,about 20%
CN1C(=O)CN=C(c2ccccc2)c2cc(Cl)ccc21 [diazepam],Stimulation by 1 μM diazepam,[1]; [7],264+61% and 280+71% and 318+62%
same,Stimulation by 1 μM diazepam,[2]; [7],237+97% and 160+4%
same,Stimulation by 1 μM diazepam,[3]; [7],417+85% and 417+144%
same,Stimulation by 1 μM diazepam,"[4]; α1β2γ2, 1 μM, different batches of oocytes, n=5",223+28% and 178+20%
